US8452543B2, “High throughput screening for antimicrobial dosing regimens” (priority 2005, dated 2013)
Converted amounts (≈) assume the structure as drawn. Where two headings read alike, the source gives them in different places.

What was measured:
[1] = system: P. aeruginosa PA 27853 and resistant isolates MR1, MR2, MR3; test: microbe, parasite or virus in culture; type: cell-based, Pseudomonas aeruginosa; conditions: for MIC: Pseudomonas aeruginosa
Description: (§1) Minimum inhibitory concentration (MIC)/minimum bactericidal concentration (MBC) were determined in Ca-MHB using a modified macrobroth dilution method as described by the CLSI (10). The final concentration of bacteria in each macrobroth dilution tube was approximately 5×10^5 cfu/ml of Ca-MHB. Serial twofold dilutions of meropenem were used. […] Samples (50 μl) from clear tubes and the cloudy tube with the highest drug concentration were plated on Mueller-Hinton agar (MHA) plates (Hardy Diagnostics, Santa Maria, Calif.). […] Drug carry-over effect was assessed by visual inspection of the distribution of colonies on media plates. The studies were conducted in duplicate and repeated at least once on a separate day.

P. aeruginosa ATCC 27853 [2] = test: MIC/MBC, modified macrobroth dilution; type: cell-based, Pseudomonas aeruginosa
Description: as §1, with “The” for “Minimum inhibitory concentration (MIC)/minimum bactericidal concentration (MBC) were determined in Ca-MHB using a modified macrobroth dilution method as described by the CLSI (10). The”

P. aeruginosa ATCC 27853 [3] = test: Time-kill studies and growth dynamics model, meropenem; type: cell-based, Pseudomonas aeruginosa; conditions: for EC50: read-out: Ck50 (the source's name)
Description: Time-kill studies were conducted with different and escalating meropenem concentrations. […] An overnight culture of the isolate was diluted 30-fold with pre-warmed Ca-MHB and incubated further at 35 8 C until reaching late log phase growth. The bacterial suspension was diluted with Ca-MHB accordingly based on absorbance at 630 nm; 15 mL of the suspension was transferred to 50 mL sterile conical flasks each containing 1 mL of an antimicrobial agent solution at 16 the target concentration. The final concentration of the bacterial suspension in each flask was 1×10^8 cfu/mL. The high inoculum used was to simulate the bacterial load in severe infection, and to allow resistant sub-population(s) to be present at baseline. The experiment was conducted for 24 h in a shaker water bath set at 35 8 C. Serial samples in duplicate were obtained from each flask over 24 h, at 0 (baseline), 2, 4, 8, 12, and 24 h, to characterize the effect of various meropenem concentrations on the total bacterial population. Prior to culturing the bacteria quantitatively, the bacterial samples (0.5 mL) were centrifuged at 10000 g for 15 min, and reconstituted with sterile normal saline to their original volumes in order to minimize drug carry-over effect. Total bacterial populations were quantified by spiral plating 10 serial dilutions of the samples ([…]) onto MHA plates. The media plates were incubated in a humidified incubator (35 8 C) for 18-24 h, and the bacterial density from each sample was determined by CASBA-4 colony scanner/software (Spiral Biotech, Bethesda, Md., USA). The theoretical lower limit of detection was 400 cfu/mL.
The time courses of bacterial burden under different drug exposures is described using a mathematical model. The population balance for a bacterial population is determined by: Rate of change of bacterial population over time=intrinsic growth rate−kill rate by antimicrobial agent or
In contrast to the conventional approach in which the final observed effects are modelled, information over time was utilized to develop a dynamic model system that would capture bacterial growth/killing rates. The starting point was a mathematical model describing the time course of bacterial burden [biological response, N(t)] under the influence of various antimicrobial agent concentrations C(t). The rate of change of bacteria over time was expressed as the difference between the intrinsic bacterial growth rate and the kill rate provided by the antimicrobial agent (Eq. 35). Based on previous studies, a linear bacterial growth rate was adopted. Additional model parameters were used to account for other physiological phenomena such as contact inhibition (using a maximum population size) and non-linear (sigmoidal) kill rate to account for target site saturation. Regrowth was attributed to adaptation, which was explicitly modelled as increase in the concentration necessary to achieve 50% maximal kill rate (C50k), using a saturable function of antimicrobial agent selective pressure (both meropenem concentration and time) (Eq. 36).
The experimental data derived from the time-kill studies were analysed by population analysis, using the non-parametric adaptive grid (NPAG) program (28). The killing profile observed with each meropenem concentration was input as a subject in the population analysis. The search algorithm sought the combination of parameter values and their distributions that would have the highest likelihood of explaining the observations made with all the meropenem concentrations in a single step (as opposed to fixing some parameter estimates sequentially while estimating the others). The explicit assumption was made that overall observation variance was proportional to variance of the measurement, i.e. quantitative cultures. The proportionality constant g was optimized with each cycle of the analysis.

Pseudomonas aeruginosa = type: cell-based
Description: The computer simulations were compared to experimental data from an in-vitro hollow fiber infection model with similar antimicrobial agent exposures (20). Basically the drug was injected directly into the central reservoir to achieve the peak concentration desired. Fresh (drug-free) growth medium (Ca-MHB) was continuously infused from the diluent reservoir into the central reservoir to dilute the drug in order to simulate drug elimination in humans. An equal volume of meropenem-containing medium was removed from the central reservoir concurrently to maintain an isovolumetric system. […]
Various elimination half-lives (1-3 hours) of meropenem were simulated and were validated subsequently in the infection models. Serial samples were obtained at baseline and daily (pre-dose) in duplicate from each hollow fiber system, for quantitative culture to define the effect of various drug exposures on the total bacterial population and on selection of resistant bacterial sub-populations.
Prior to culturing the bacteria quantitatively, the bacterial samples were centrifuged at 15,000 G for 15 minutes and reconstituted with sterile normal saline in order to minimize drug carry-over effect. Total bacterial populations were quantified by spiral plating 10× serial dilutions of the samples (50 μl) onto drug-free Mueller-Hinton agar (MHA) plates (Hardy Diagnostics, Santa Maria, Calif.). […]

[4] = Mean of the parameter estimates

C[C@@H](O)[C@H]1C(=O)N2C(C(=O)O)=C(S[C@@H]3CN[C@H](C(=O)N(C)C)C3)[C@H](C)[C@H]12 [meropenem]
MIC ([1]; OprD− isolate used in vivo): 4 µg/mL (≈ 10.4 µM)
MIC ([1]; strain MR1 (Placebo exposure, OprD−), macrobroth method): 4 µg/mL (≈ 10.4 µM)
MIC ([1]; strain MR2 (Cmin/MIC 0.5, OprD− & Mex+), macrobroth method): 64 µg/mL (≈ 167 µM)
MIC ([1]; strain MR3 (Cmin/MIC 1.7, OprD− & Mex+), macrobroth method, read-out: MIC): 32 µg/mL (≈ 83.4 µM)
MIC ([1]; strain PA 27853, macrobroth method): 1 µg/mL (≈ 2.61 µM)
stability of resistance ([1]; resistant isolates recovered from MEM-supplemented plates): phenotypically stable
MBC (P. aeruginosa ATCC 27853 [2]; Pseudomonas aeruginosa, ATCC27853, P. aeruginosa isolate, read-out: MBC): 1 µg/mL (≈ 2.61 µM)
MIC (P. aeruginosa ATCC 27853 [2]; Pseudomonas aeruginosa, ATCC27853, P. aeruginosa isolate, read-out: MIC): 1 µg/mL (≈ 2.61 µM)
MIC (P. aeruginosa ATCC 27853 [2]; wild-type isolate used in vivo): 1 µg/mL (≈ 2.61 µM)
regrowth (P. aeruginosa ATCC 27853 [3]; 0.25 MIC and 1 MIC, between 12 and 24 h): Regrowth was observed
Kg (P. aeruginosa ATCC 27853 [3]; [4]): 4.71 h − 1
Kg (P. aeruginosa ATCC 27853 [3]; meropenem Concn 0.25 mg/L): 9.60 h − 1
Kg (P. aeruginosa ATCC 27853 [3]; meropenem Concn 1 mg/L): 4.08 h − 1
Kg (P. aeruginosa ATCC 27853 [3]; meropenem Concn 4 mg/L): 3.12 h − 1
Kg (P. aeruginosa ATCC 27853 [3]; meropenem Concn 16 mg/L): 3.41 h − 1
Kg (P. aeruginosa ATCC 27853 [3]; meropenem Concn 64 mg/L): 3.95 h − 1
H (P. aeruginosa ATCC 27853 [3]; [4]): 2.83
β (P. aeruginosa ATCC 27853 [3]; [4]): 5.85
τ (P. aeruginosa ATCC 27853 [3]; [4]): 158 µL/min/mg
MIC (P. aeruginosa ATCC 27853 [3]; Pseudomonas aeruginosa, ATCC27853, 24 h, validation time-kill, meropenem at 2 MIC, read-out: MIC of the entire bacterial population at 24 h): > 1 µg/mL
EC50 (P. aeruginosa ATCC 27853 [3]; Pseudomonas aeruginosa, ATCC27853, Mean of the parameter estimates): 2.29 µg/mL
EC50 (P. aeruginosa ATCC 27853 [3]; Pseudomonas aeruginosa, ATCC27853, meropenem Concn 0.25 mg/L): 0.44 µg/mL
EC50 (P. aeruginosa ATCC 27853 [3]; Pseudomonas aeruginosa, ATCC27853, meropenem Concn 1 mg/L): 3.53 µg/mL
EC50 (P. aeruginosa ATCC 27853 [3]; Pseudomonas aeruginosa, ATCC27853, meropenem Concn 4 mg/L): 0.74 µg/mL
EC50 (P. aeruginosa ATCC 27853 [3]; Pseudomonas aeruginosa, ATCC27853, meropenem Concn 16 mg/L): 2.61 µg/mL
EC50 (P. aeruginosa ATCC 27853 [3]; Pseudomonas aeruginosa, ATCC27853, meropenem Concn 64 mg/L): 2.9 µg/mL
concentration necessary to attain 80% maximal kill rate (C80k) (P. aeruginosa ATCC 27853 [3]; at baseline): 3.8 mg/L
concentration necessary to attain 90% maximal kill rate (C90k) (P. aeruginosa ATCC 27853 [3]; at baseline): 5.0 mg/L
H (P. aeruginosa ATCC 27853 [3]; meropenem Concn 0.25 mg/L): 3.81
β (P. aeruginosa ATCC 27853 [3]; meropenem Concn 0.25 mg/L): 3.79
τ (P. aeruginosa ATCC 27853 [3]; meropenem Concn 0.25 mg/L): 350 µL/min/mg
H (P. aeruginosa ATCC 27853 [3]; meropenem Concn 1 mg/L): 1.48
β (P. aeruginosa ATCC 27853 [3]; meropenem Concn 1 mg/L): 6.64
τ (P. aeruginosa ATCC 27853 [3]; meropenem Concn 1 mg/L): 183 µL/min/mg
H (P. aeruginosa ATCC 27853 [3]; meropenem Concn 4 mg/L): 1.67
β (P. aeruginosa ATCC 27853 [3]; meropenem Concn 4 mg/L): 4.48
τ (P. aeruginosa ATCC 27853 [3]; meropenem Concn 4 mg/L): 115 µL/min/mg
H (P. aeruginosa ATCC 27853 [3]; meropenem Concn 16 mg/L): 7.74
β (P. aeruginosa ATCC 27853 [3]; meropenem Concn 16 mg/L): 4.85
τ (P. aeruginosa ATCC 27853 [3]; meropenem Concn 16 mg/L): 85 µL/min/mg
H (P. aeruginosa ATCC 27853 [3]; meropenem Concn 64 mg/L): 0.79
β (P. aeruginosa ATCC 27853 [3]; meropenem Concn 64 mg/L): 8.70
τ (P. aeruginosa ATCC 27853 [3]; meropenem Concn 64 mg/L): 23.3 µL/min/mg
drop in bacterial burden at 24 h (P. aeruginosa ATCC 27853 [3]; meropenem concentrations 4 MIC (4 mg/L)): > 2 log
concentration at which initial killing appeared maximized (P. aeruginosa ATCC 27853 [3]; time-kill): 4 MIC
killing profile (P. aeruginosa ATCC 27853 [3]; time-kill): partially concentration-dependent
regrowth (P. aeruginosa ATCC 27853 [3]; validation time-kill, meropenem at 2 MIC): regrowth
regrowth (P. aeruginosa ATCC 27853 [3]; validation time-kill, meropenem at 32 MIC): no regrowth was observed
microbial response (Pseudomonas aeruginosa): associated with regrowth
Cmin/MIC necessary to suppress the emergence of resistance (Pseudomonas aeruginosa; Cmax 64 μg/ml, dosing every 8 hours for 5 days): ≥ 4
